Results from ChEMBL document CHEMBL4002617, “Antifungal activity of substituted aurones” (Bioorg Med Chem Lett, 2017).
Active and inactive are the calls of the source. The calls are words filed in the database; no cut-off is given here.

Columns and labels:
Type in all cases: functional
Candida albicans [1] = experiment: Antifungal activity against Candida albicans ATCC 90028 at 100 uM after 24 hrs by PrestoBlue dye based microdilution broth assay relative to control; settings: ATCC 90028, 24 h
Candida albicans [2] = experiment: Antifungal activity against Candida albicans ATCC 90028 after 24 hrs by PrestoBlue dye based microdilution broth assay; settings: ATCC 90028, 24 h
Nakaseomyces glabratus = experiment: Antifungal activity against Candida glabrata ATCC 66032 after 24 hrs by PrestoBlue dye based microdilution broth assay; settings: ATCC 66032, 24 h
Candida tropicalis = experiment: Antifungal activity against Candida tropicalis ATCC 750 after 24 hrs by PrestoBlue dye based microdilution broth assay; settings: ATCC 750, 24 h
Candida albicans [3] = experiment: Antibiofilm activity against Candida albicans ATCC 90028 intermediate phase biofilm at antifungal IC50 to IC99 after 24 hrs by calcofluor white dye based fluorescent microscopic analysis
Candida albicans [4] = experiment: Antibiofilm activity against Candida albicans ATCC 90028 intermediate phase biofilm at 2 ug/ml after 24 hrs by calcofluor white dye based fluorescent microscopic analysis
Candida albicans [5] = experiment: Antibiofilm activity against Candida albicans ATCC 90028 intermediate phase biofilm at 16 ug/ml after 24 hrs by calcofluor white dye based fluorescent microscopic analysis
Candida albicans [6] = experiment: Antibiofilm activity against Candida albicans ATCC 90028 intermediate phase biofilm at 100 ug/ml after 24 hrs by calcofluor white dye based fluorescent microscopic analysis

| Compound | inhibition at 100 µM (Candida albicans [1]) | other results |
| --- | --- | --- |
| O=C1/C(=C/c2ncc[nH]2)Oc2ccccc21 | 43.9% | – |
| COc1cc(Br)c(/C=C2\Oc3ccccc3C2=O)cc1OC | 12.5% | – |
| O=C1/C(=C/c2ccccn2)Oc2ccccc21 | – | IC50 (Candida albicans [2]): 18 µM; IC50 (Nakaseomyces glabratus): 10 µM; IC50 (Candida tropicalis): 12 µM; Activity (Candida albicans [3]): inactive |
| COc1cc(/C=C2\Oc3ccccc3C2=O)ccc1O | 11.2% | – |
| COc1cccc(/C=C2\Oc3ccccc3C2=O)c1O | 16.7% | – |
| COc1ccc(/C=C2\Oc3ccccc3C2=O)cc1OC [3',4'-DIMETHOXY-AURONE] | 14.2% | – |
| O=C1/C(=C/c2ccccc2O)Oc2ccccc21 | 1% | – |
| COc1ccc(/C=C2\Oc3ccccc3C2=O)cc1O | 45.6% | – |
| COc1ccc(/C=C2\Oc3cc(O)ccc3C2=O)cc1O | 40% | – |
| O=C1/C(=C/c2ccc[nH]2)Oc2ccccc21 | 78.8% | – |
| O=C1/C(=C/c2cccs2)Oc2c1ccc(O)c2O | 26% | – |
| C[C@@H]1[C@H](O)[C@@H](C)/C=C/C=C/C=C/C=C/C=C/C=C/C=C/[C@H](O[C@@H]2O[C@H](C)[C@@H](O)[C@H](N)[C@@H]2O)C[C@@H]2O[C@](O)(C[C@@H](O)C[C@@H](O)[C@H](O)CC[C@@H](O)C[C@@H](O)CC(=O)O[C@H]1C)C[C@H](O)[C@H]2C(=O)O | – | Activity (Candida albicans [4]): Active |
| COc1ccc(/C=C2\Oc3c(ccc(O)c3O)C2=O)cc1O | 99.4% | IC50 (Candida albicans [2]): 16 µM; IC99 (Candida albicans [2]): 100 µM; IC50 (Nakaseomyces glabratus): 11 µM; IC50 (Candida tropicalis): 10 µM; Activity (Candida albicans [5]): inactive; Activity (Candida albicans [6]): Active |
| O=C1/C(=C/c2ccc[nH]2)Oc2c1ccc(O)c2O | 27.5% | – |
